Data set [1] can be described thus: Brain and plasma exposure after chronic subcutaneous administration (Alzet osmotic pump). It is filed as in vivo, C57Bl/6J mice. The conditions noted are these: C57Bl/6J, mouse, sc, 30 mg/kg, 28 days, mice, read-out: brain/plasma partition coefficient (Kpbrain/plasma). On the procedure: FIG. 5. Plots illustrating the effect of brain and plasma exposure after chronic subcutaneous administration of Aftin-5 to C57B16J mice. Due to short Aftin-5 elimination half-time, C57B1/6J mice were exposed subcutaneously to Aftin-5 (30 mg/kg) or vehicle (DMSO/PEG) during 28 days through an Alzet osmotic pump (pump 1004, Q=0.14 μL/hrs). Plasma was collected at different time points and 28 days after, both brain tissue and plasma were collected. Aftin-5 were extracted and quantified by LC-MS/MS (Quattro Premier). Aftin-5 concentrations in plasma (A) and brain (B) were expressed in nM. Data expressed as means+/−SEM from one experiment with n=4-5 mice/condition.
C57B1 were exposed subcutaneously to Aftin-5 using osmotic minipumps ([…]; Saint-Germain-Nuelles, France). Aftin-5 was dissolved in DMSO:propylene glycol:ethanol (45:45:10). Mice were treated with 1, 3 or 30 mg/Kg for 28 days. Filled pumps were left in saline overnight at 37° C. for priming. Mice were anesthetized with isoflurane (3-4% v/v, 1.5 mL/min) in an induction chamber and maintained under anesthesia through a mask. Mice were shaved on their back, disinfected and an incision made between the scapulae for pump implantation and finally closed with clips. 1% lidocaine gel was applied over the incision for local analgesia. Animals recovered from anesthesia in heated pads and immediately returned to the cages.

Data set [2] relates to PSD95. As to the kind of experiment: PSD95 mRNA in OHSC (RT-qPCR). It is filed as cell-based. The conditions noted are these: OHSCs from WT mice, 50 μM, 10 days. On the procedure:
FIG. 15. Plots illustrating the effect of Aftin-5 on relative mRNA expression levels of Long Term Potentialisation (LTP) biomarkers, i.e CREB (A), PSD95 (B) and BDNF (C) in C57B16J OHSC mice treated chronically with Aftin-5. OHSC culture media of OHSC were replaced by incubation medium containing Aftin-5 (50 μM; A50) or vehicle (0.1% DMSO; Veh). 10 days later, total mRNA in lysate was isolated and purified, cDNAs were then synthesized from […] of total mRNA. cDNAs were amplified by quantitative RT-PCR and the relative expression of specific genes was normalized to the housekeeping gene HPRT1 (2^—ΔCt). […] Data expressed as means+/−SEM from q=3 independent experiments with n=4-6 inserts/condition and 10 slices/insert. […]
The impact of Aftin-5 on gene expression of different biomarkers was determined by measuring mRNA levels of selected BDNF, CREB, PS95, INS Receptor/IGF-1 receptor, IL-1β, IL-6 in OHSC treated chronically with Aftin-5 or in a total brain from mice exposed to Aftin-5 at either 8 or 30 mg/Kg. […] RNA concentration was measured spectrophotometrically at 260 nm in a NanoDrop 2000c (Thermo Scientific, Villebon-sur-Yvette, France) (sample A260 nm/A280 nm ratios over 1.8 indicated reduced genomic DNA contamination). cDNAs were synthesized from 0.5 μg of total RNA with RT^2 First Strand kit (Qiagen, Courtaboeuf, France) according to the manufacturer's protocol and stored at −80° C. […]

Data set [3] deals with InsR (insulin-receptor). As to the kind of experiment: Insulin receptor mRNA in OHSC (RT-qPCR). It is filed as cell-based, mice. The conditions noted are these: 50 μM for 10 days, P<0.05. The method, then:
FIG. 12. Plots illustrating the effect of Aftin-5 on relative mRNA expression levels of murine insulin-like growth factor-1 receptor (IGF1-R; (A)) and murine insulin receptor (Insr; (B)) in organotypic hippocampal slice cultures (OHSC). OHSC culture media of OHSC were replaced by incubation medium containing Aftin-5 (50 μM; A50) or vehicle (0.1% DMSO; Veh). 10 days later, total mRNA in lysate was isolated and purified, cDNAs were then synthesized from […] of total mRNA. cDNAs were amplified by quantitative RT-PCR and the relative expression of specific genes was normalized to the housekeeping gene HPRT1 (2^−ΔCt) Mann-Whitney tests were performed and *p<0.05 indicates significant differences between Aftin-5 and control conditions. Data expressed as means+/−SEM from q=3 independent experiments with n=4-6 inserts/condition and 10 slices/insert. […]
The impact of Aftin-5 on gene expression of different biomarkers was determined by measuring mRNA levels of selected BDNF, CREB, PS95, INS Receptor/IGF-1 receptor, IL-1β, IL-6 in OHSC treated chronically with Aftin-5 or in a total brain from mice exposed to Aftin-5 at either 8 or 30 mg/Kg. […] Threshold cycles (Ct) of target gene and cyclophilin A (Ppia−control housekeeping gene) were recorded and gene expression was calculated as 2^−ΔΔCt(ΔΔCt=ΔCttreated−ΔCtcontrol, ΔCt=Cttarget−CtPpia). […]
A general note: Quantitative PCR measures a nucleic acid by following its amplification.

As to `CC[C@H](CO)Nc1nc(N(C)c2ccccc2)c2ncn(C(C)C)c2n1` [Aftin-5], the Kp at 672 h in data set [1] is ~0.44. The “PSD95 mRNA” value in data set [2] was “transcriptional upregulation”. Further, the InsR-mRNA result in data set [3] is on record as “increased dramatically”.

Source of the values: US11472807B2, “Purine derivatives for use as medicament and for use in treating neurodegenerative or neuro-inflammatory disorders” (COMMISSARIAT À L'ENERGIE ATOMIQUE ET AUX ENERGIES …, priority 2017, dated 2022).
